According to PubChem BioAssay AID248 (DTP/NCI, 2004):
Several values for one entry are separate records, joined by “and”; a condition that tells them apart may be missing. Equal values may be shown once. Toxic doses and inconclusive results are not listed. No stated cut-off is given here; in the data, active means T/C of 150% or more; inactive means T/C below 125%.

System: L1210 leukemia ip in BDF1 mice, survival T/C
Assay: NCI In Vivo Anticancer Drug Screen. Data for tumor model L1210 Leukemia (intraperitoneal) in B6D2F1 (BDF1) mice
Details: endpoint: mean survival time, higher = longer survival
Summary of the method: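 Mice bearing the transplanted tumor received compound or vehicle. Survival of the treated group was divided by that of the vehicle-treated control group to give the ratio.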

[1] = dose: 25.0 mg/kg/injection, schedule: Q01DX009 (ip), vehicle: Klucel (hydroxypropylcellulose) (HPC)
[2] = dose: 50.0 mg/kg/injection, schedule: Q01DX009 (ip), vehicle: Klucel (hydroxypropylcellulose) (HPC)
[3] = dose: 100.0 mg/kg/injection, schedule: Q01DX009 (ip), vehicle: Klucel (hydroxypropylcellulose) (HPC)
[4] = dose: 100.0 mg/kg/injection, schedule: Q04DX003 (ip), vehicle: Klucel (hydroxypropylcellulose) (HPC)
[5] = dose: 100.0 mg/kg/injection, schedule: Q01DX001 (ip), vehicle: other
[6] = dose: 100.0 mg/kg/injection, schedule: Q01DX009 (ip), vehicle: saline with Tween-80
[7] = dose: 100.0 mg/kg/injection, schedule: Q04DX003 (ip), vehicle: saline with Tween-80
[8] = dose: 200.0 mg/kg/injection, schedule: Q01DX001 (ip), vehicle: other
[9] = dose: 200.0 mg/kg/injection, schedule: Q01DX009 (ip), vehicle: saline with Tween-80
[10] = dose: 400.0 mg/kg/injection, schedule: Q01DX001 (ip), vehicle: other
[11] = dose: 400.0 mg/kg/injection, schedule: Q01DX009 (ip), vehicle: saline with Tween-80
[12] = dose: 200.0 mg/kg/injection, schedule: Q04DX003 (ip), vehicle: Klucel (hydroxypropylcellulose) (HPC)
[13] = dose: 400.0 mg/kg/injection, schedule: Q01DX009 (ip), vehicle: Klucel (hydroxypropylcellulose) (HPC)
[14] = dose: 400.0 mg/kg/injection, schedule: Q04DX003 (ip), vehicle: Klucel (hydroxypropylcellulose) (HPC)
[15] = dose: 200.0 mg/kg/injection, schedule: Q01DX009 (ip), vehicle: Klucel (hydroxypropylcellulose) (HPC)

Measured: T/C

NC(N)=N/N=C(\C=C\c1ccccc1)C(=O)O
inactive: dose: 240.0 mg/kg/injection, schedule: Q01DX Z (ip), vehicle: methylcellulose (MC) 102 % of control | dose: 360.0 mg/kg/injection, schedule: Q01DX Z (ip), vehicle: methylcellulose (MC) 100 % of control | dose: 480.0 mg/kg/injection, schedule: Q01DX Z (ip), vehicle: methylcellulose (MC) 96 % of control

CCN(CC)CC(N)=O
inactive: dose: 100.0 mg/kg/injection, schedule: Q04DX003 (ip), vehicle: saline 103 % of control | dose: 200.0 mg/kg/injection, schedule: Q04DX003 (ip), vehicle: saline 103 % of control | dose: 400.0 mg/kg/injection, schedule: Q04DX003 (ip), vehicle: saline 111 % of control

C[C@@H]1C[C@H]2[C@@H]3CCC4=CC(=O)C=C[C@]4(C)[C@@]3(F)[C@@H](O)C[C@]2(C)[C@@]1(O)C(=O)CO
inactive: dose: 3.12 mg/kg/injection, schedule: Q01DX009 (ip), vehicle: Klucel (hydroxypropylcellulose) (HPC) 102 % of control | dose: 6.25 mg/kg/injection, schedule: Q01DX009 (ip), vehicle: Klucel (hydroxypropylcellulose) (HPC) 95 % of control | dose: 10.0 mg/kg/injection, schedule: Q01DX Z (sc), vehicle: steriod suspending solution 112 % of control | dose: 12.5 mg/kg/injection, schedule: Q01DX009 (ip), vehicle: Klucel (hydroxypropylcellulose) (HPC) 98 % of control | dose: 12.5 mg/kg/injection, schedule: Q01DX009 (ip), vehicle: saline 111 % of control | [1] 96 % of control | dose: 25.0 mg/kg/injection, schedule: Q01DX009 (ip), vehicle: saline sonified 99 % of control | dose: 25.0 mg/kg/injection, schedule: Q01DX009 (ip), vehicle: saline 96 % of control | dose: 25.0 mg/kg/injection, schedule: Q01DX Z (sc), vehicle: steriod suspending solution 112 % of control | dose: 37.5 mg/kg/injection, schedule: Q04DX003 (ip), vehicle: saline with Tween-80 93 % of control | [2] 91 % of control | dose: 50.0 mg/kg/injection, schedule: Q01DX009 (ip), vehicle: saline sonified 99 % of control | dose: 50.0 mg/kg/injection, schedule: Q01DX009 (ip), vehicle: saline 107 % of control | dose: 50.0 mg/kg/injection, schedule: Q01DX Z (sc), vehicle: steriod suspending solution 110 % of control | dose: 75.0 mg/kg/injection, schedule: Q04DX003 (ip), vehicle: saline with Tween-80 95 % of control | [3] 91 % of control | dose: 100.0 mg/kg/injection, schedule: Q01DX009 (ip), vehicle: saline sonified 106 % of control | [4] 102 % of control

C(=C\c1ccccc1)/C=N/N=C/C=C/c1ccccc1
inactive: [5] 105 % of control | [6] 94 % of control | dose: 100.0 mg/kg/injection, schedule: Q04DX002 (ip), vehicle: Klucel (hydroxypropylcellulose) (HPC) 100 % of control | [7] 90 % of control | [8] 97 % of control | [9] 90 % of control | dose: 200.0 mg/kg/injection, schedule: Q04DX002 (ip), vehicle: Klucel (hydroxypropylcellulose) (HPC) 96 % of control | dose: 200.0 mg/kg/injection, schedule: Q04DX003 (ip), vehicle: saline with Tween-80 89 % of control | [10] 94 % of control | [11] 94 % of control | dose: 400.0 mg/kg/injection, schedule: Q04DX002 (ip), vehicle: Klucel (hydroxypropylcellulose) (HPC) 100 % of control | dose: 400.0 mg/kg/injection, schedule: Q04DX003 (ip), vehicle: saline with Tween-80 92 % of control

N#C/C(=C\c1ccco1)C1CCCCC1
inactive: dose: 100.0 mg/kg/injection, schedule: Q04DX002 (ip), vehicle: other 86 % of control | dose: 200.0 mg/kg/injection, schedule: Q04DX002 (ip), vehicle: other 104 % of control

CSc1cc2c(cc1NC(C)=O)Cc1cc(F)ccc1-2
inactive: dose: 100.0 mg/kg/injection, schedule: Q01DX001 (ip), vehicle: carboxymethylcellulose (CMC) 98 % of control | dose: 200.0 mg/kg/injection, schedule: Q01DX001 (ip), vehicle: carboxymethylcellulose (CMC) 101 % of control | dose: 400.0 mg/kg/injection, schedule: Q01DX001 (ip), vehicle: carboxymethylcellulose (CMC) 95 % of control

CN=[N+]([O-])c1ccccc1
inactive: dose: 100.0 mg/kg/injection, schedule: Q01DX001 (ip), vehicle: saline 100 % of control | dose: 200.0 mg/kg/injection, schedule: Q01DX001 (ip), vehicle: saline 100 % of control | dose: 400.0 mg/kg/injection, schedule: Q01DX001 (ip), vehicle: saline 97 % of control

O=C(O)C1=NN(c2ccc([N+](=O)[O-])cc2)C(=O)C1
inactive: dose: 100.0 mg/kg/injection, schedule: Q04DX003 (ip), vehicle: other 106 % of control | dose: 200.0 mg/kg/injection, schedule: Q04DX003 (ip), vehicle: other 105 % of control | dose: 400.0 mg/kg/injection, schedule: Q04DX003 (ip), vehicle: other 106 % of control

O=CC1CC2c3ccccc3C1c1ccccc12 (stereo not given)
inactive: dose: 100.0 mg/kg/injection, schedule: Q01DX009 (ip), vehicle: gum acacia 106 % of control | dose: 100.0 mg/kg/injection, schedule: Q04DX003 (ip), vehicle: gum acacia 95 % of control | dose: 200.0 mg/kg/injection, schedule: Q01DX009 (ip), vehicle: gum acacia 95 % of control | dose: 200.0 mg/kg/injection, schedule: Q04DX003 (ip), vehicle: gum acacia 92 % of control | dose: 400.0 mg/kg/injection, schedule: Q01DX009 (ip), vehicle: gum acacia 102 % of control | dose: 400.0 mg/kg/injection, schedule: Q04DX003 (ip), vehicle: gum acacia 87 % of control

CCCCn1nnc2c(NN)nc(N)nc21
inactive: dose: 25.0 mg/kg/injection, schedule: Q01DX009 (ip), vehicle: saline with Tween-80 102 % of control | dose: 25.0 mg/kg/injection, schedule: Q04DX003 (ip), vehicle: saline with Tween-80 100 % of control | dose: 50.0 mg/kg/injection, schedule: Q01DX009 (ip), vehicle: saline with Tween-80 101 % of control | dose: 50.0 mg/kg/injection, schedule: Q04DX003 (ip), vehicle: saline with Tween-80 94 % of control | [7] 100 % of control

CC(C)(c1ccccc1)C(C)(C)c1ccccc1
inactive: [3] 91 % of control | [4] 92 % of control | [12] 96 % of control | [13] 89 % of control | [14] 96 % of control

O=NN(c1ccccc1)c1ccccc1
inactive: dose: 100.0 mg/kg/injection, schedule: Q01DX001 (ip), vehicle: Klucel (hydroxypropylcellulose) (HPC) 98 % of control | [3] 100 % of control | dose: 200.0 mg/kg/injection, schedule: Q01DX001 (ip), vehicle: Klucel (hydroxypropylcellulose) (HPC) 101 % of control | [15] 102 % of control | dose: 400.0 mg/kg/injection, schedule: Q01DX001 (ip), vehicle: Klucel (hydroxypropylcellulose) (HPC) 87 % of control | [13] 92 % of control

CCOC(=O)C(=O)Cc1cnccn1
inactive: [5] 101 % of control and 108 % of control | [8] 100 % of control and 101 % of control | [10] 97 % of control

C[C@]12CC[C@H]3[C@@H](CC=C4C[C@@H](O)CC[C@@]43C)[C@@H]1CC[C@@H]2N
inactive: dose: 100.0 mg/kg/injection, schedule: Q01DX001 (sc), vehicle: steriod suspending solution 98 % of control | dose: 100.0 mg/kg/injection, schedule: Q04DX002 (ip), vehicle: saline with Tween-80 105 % of control | dose: 200.0 mg/kg/injection, schedule: Q01DX001 (sc), vehicle: steriod suspending solution 101 % of control | dose: 200.0 mg/kg/injection, schedule: Q04DX002 (ip), vehicle: saline with Tween-80 112 % of control | dose: 400.0 mg/kg/injection, schedule: Q01DX001 (sc), vehicle: steriod suspending solution 101 % of control | dose: 400.0 mg/kg/injection, schedule: Q04DX002 (ip), vehicle: saline with Tween-80 118 % of control

CCn1c(C)cc(O)cc1=O
inactive: [6] 94 % of control | [9] 92 % of control | [11] 94 % of control

O=C1c2ccccc2C(=O)N1SN1C(=O)c2ccccc2C1=O
inactive: [1] 92 % of control | [2] 93 % of control | [3] 97 % of control

Cc1noc(C)c1CC1(Cc2c(C)noc2C)C(=O)CCC2(C)CCCC=C21 (stereo not given)
inactive: [3] 92 % of control | [4] 95 % of control | [15] 98 % of control | [12] 93 % of control | [13] 97 % of control | [14] 96 % of control
